In series [1] the test system is human APOE RNA. Kind of series: Dose-dependent inhibition of human APOE RNA in HepG2 cells, electroporation, 24 hours (Example 6). The class given is cell-based. As to the method: Modified oligonucleotides selected from the examples above were tested at various doses in HepG2.
HepG2 cells plated at a density of 50,000 cells per well were treated by electroporation with various concentrations of modified oligonucleotide as specified in the tables below. […] APOE RNA levels were measured using the human primer probe set RTS3073 (described herein above). APOE RNA levels were normalized to human GAPDH. Human GAPDH was amplified using human primer probe set RTS 104 (described herein above). Results are presented as percent APOE RNA, relative to the amount of APOE RNA in untreated control cells (% UTC). The half maximal inhibitory concentration (IC50) of each modified oligonucleotide was calculated in GraphPad Prism 10 (GraphPad Software, San Diego, CA) and is also presented in the tables below.

For series [2], the system named is human APOE RNA. Kind of series: Activity in APOE C57BL/6NTac-Apoeem7250 knock-in mice, single ICV bolus, 4 weeks (Example 10). The class given is in vivo. The following applies: C57BL/6NTac-Apoeem7250 knock-in mice, single ICV bolus 300 μg, 4 weeks (Table 22). As to the method: Modified oligonucleotides described above were tested in the APOE C57BL/6NTac-Apoeem7250 knock-in mouse model described above.
APOE C57BL/6NTac-Apoeem7250 knock-in mice were divided into groups of 2-4 mice each. Each mouse received a single ICV bolus of 300 μg of modified oligonucleotide. A group of 3-4 mice received a single ICV bolus with PBS as a negative control.
Four weeks post treatment, mice were sacrificed and RNA was extracted from cortical brain tissue and spinal cord for quantitative real-time RT-PCR analysis of RNA expression of APOE using human primer probe set RTS3073 (described herein above). APOE RNA levels were normalized to mouse Ppia. Mouse Ppia was amplified using primer probe set m_cyclo24 (described herein above). Results are presented as percent human APOE RNA relative to the amount of human APOE RNA in PBS treated animals, (% control). Each experiment is identified in separate tables below.

The subject of series [3] is human APOE RNA. Put plainly: Activity in APOE C57BL/6NTac-Apoeem7250 knock-in mice, single ICV bolus, 16 weeks (Example 12). The class given is in vivo. Particulars: single ICV bolus 300 μg, 16 weeks post treatment, normalized to mouse Ppia. Summed up:
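Knock-in mice (3-4 per group) received one ICV bolus of 300 μg oligonucleotide, PBS as control. After 16 weeks, human APOE RNA in cortex and spinal cord measured by RT-qPCR, normalized to mouse Ppia, and reported as % of PBS control.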

pIC50: −log10 of the molar value. Strand notation (5' to 3'): a small letter for the sugar, then the base; units joined by * are phosphorothioate-linked, units joined directly phosphodiester-linked; [ ] holds rarer units or linkages, { } end groups; capitals alone tell only the bases. [ms] = mesyl phosphoramidate linkage; e = 2'-O-(2-methoxyethyl) (MOE); k = constrained ethyl (cEt); [5mC] = 5-methylcytosine; d = 2'-deoxy (DNA)

As to “1736532 (e[5mC]*eT*eT*eG*kG*kTdG[ms]dA[ms]dA[ms]dT*d[5mC]*dT*dT*dT*dA[ms]dT*eT*eA*eA*eA; antisense) [Compound 1736532]”, in series [1], the pIC50 was 6.55. For the same substance, the “APOE RNA (% UTC)” value in series [1] (5 nM) came out at 81 % UTC; in series [1] (13 nM) it was 85 % UTC; in series [1] (33 nM), 74 % UTC; in series [1] (82 nM), 71 % UTC; in series [1] (205 nM) it was 54 % UTC; in series [1] (512 nM), 41 % UTC. For the same substance, the “APOE RNA (% UTC)” value in series [1] (1,280 nM) came to 32 % UTC; in series [1] (3,200 nM), 17 % UTC; in series [1] (8,000 nM), 23 % UTC; in series [1] (20,000 nM), 5 % UTC. The results for the “APOE RNA (% control) Cortex” value in series [2] and in series [3] were 30 % control and 34 % control, respectively. For the same substance, the “APOE RNA (% control) Spinal Cord” value in series [2] was determined as 38 % control; in series [3], 45 % control.

In turn, “1736533 (e[5mC]*eT*eT*eG*eGeT*dG[ms]dA[ms]dA[ms]dT*d[5mC]*dT*dT*dT*dA[ms]dT*kT*eA*eA*eA; antisense) [Compound 1736533]” gave a pIC50 in series [1] of 6.41. Besides, the “APOE RNA (% UTC)” value in series [1] (5 nM) is recorded as 83 % UTC; in series [1] (13 nM) it was 83 % UTC; in series [1] (33 nM) it was 78 % UTC; in series [1] (82 nM), 74 % UTC; in series [1] (205 nM) it was 55 % UTC; in series [1] (512 nM), 50 % UTC. In addition, the “APOE RNA (% UTC)” value was determined as 38 % UTC in series [1] (1,280 nM), 28 % UTC in series [1] (3,200 nM), 13 % UTC in series [1] (8,000 nM) and 5 % UTC in series [1] (20,000 nM). Also, the “APOE RNA (% control) Cortex” value in series [2] turned out to be 34 % control; in series [3], 57 % control. The figures for the “APOE RNA (% control) Spinal Cord” value in series [2] and in series [3] were 54 % control and 49 % control, respectively.

As to “1736493 (e[5mC]*eTeT*eG*eG*eT*dG[ms]dA[ms]dA[ms]dT*d[5mC]*dT*dT*dT*dA[ms]dT*kT*kA*eA*eA; antisense) [Compound 1736493]”, the pIC50 in series [1] is 6.85. The “APOE RNA (% UTC)” value came to 73 % UTC in series [1] (5 nM); 85 % UTC in series [1] (13 nM); 67 % UTC in series [1] (33 nM); 58 % UTC in series [1] (82 nM); 50 % UTC in series [1] (205 nM); 35 % UTC in series [1] (512 nM). In addition, the “APOE RNA (% UTC)” value in series [1] (1,280 nM) turned out to be 25 % UTC; in series [1] (3,200 nM), 8 % UTC; in series [1] (8,000 nM), 6 % UTC; in series [1] (20,000 nM) it was 8 % UTC. In addition, the entries for the “APOE RNA (% control) Cortex” value in series [2] and in series [3] were 47 % control and 57 % control, respectively. Further, the “APOE RNA (% control) Spinal Cord” value in series [2] and in series [3] was 51 % control throughout.

In turn, “1736535 (e[5mC]*eT*eT*eG*eGkT*dG[ms]dA[ms]dA[ms]dT*d[5mC]*dT*dT*dT*dA[ms]dT*eT*eA*eA*eA; antisense) [Compound 1736535]” gave a pIC50 in series [1] of 5.78. Further, the “APOE RNA (% UTC)” value in series [1] (5 nM) amounted to 90 % UTC; in series [1] (13 nM), 96 % UTC; in series [1] (33 nM), 99 % UTC; in series [1] (82 nM), 93 % UTC; in series [1] (205 nM) it was 67 % UTC; in series [1] (512 nM) it was 69 % UTC. The “APOE RNA (% UTC)” value in series [1] (1,280 nM) is 53 % UTC; in series [1] (3,200 nM), 24 % UTC; in series [1] (8,000 nM) it was 51 % UTC; in series [1] (20,000 nM), 13 % UTC. Besides, the “APOE RNA (% control) Cortex” value is listed as 39 % control in series [2] and 47 % control in series [3]. Also, the “APOE RNA (% control) Spinal Cord” value in series [2] is 63 % control; in series [3], 26 % control.

In turn, “1736492 (e[5mC]*eTeT*eG*eG*eT*dG[ms]dA[ms]dA[ms]dT*d[5mC]*dT*dT*dT*dA[ms]dT*kT*eA*eA*eA; antisense) [Compound 1736492]” showed a pIC50 in series [1] of 6.03. The “APOE RNA (% UTC)” value in series [1] (5 nM) stood at 95 % UTC; in series [1] (13 nM), 87 % UTC; in series [1] (33 nM) it was 76 % UTC; in series [1] (82 nM), 82 % UTC; in series [1] (205 nM), 71 % UTC; in series [1] (512 nM), 52 % UTC. The “APOE RNA (% UTC)” value is on record as 52 % UTC in series [1] (1,280 nM), 41 % UTC in series [1] (3,200 nM), 15 % UTC in series [1] (8,000 nM) and 20 % UTC in series [1] (20,000 nM). The “APOE RNA (% control) Cortex” value in series [2] came to 45 % control; in series [3] it was 53 % control. The “APOE RNA (% control) Spinal Cord” value in series [2] was found to be 46 % control; in series [3] it was 52 % control.

For the substance “1736536 (e[5mC]*eT*eT*eG*kGkT*dG[ms]dA[ms]dA[ms]dT*d[5mC]*dT*dT*dT*dA[ms]dT*eT*eA*eA*eA; antisense) [Compound 1736536]”, the pIC50 in series [1] is 6.21. Besides, the “APOE RNA (% UTC)” value in series [1] (5 nM) is 97 % UTC; in series [1] (13 nM), 102 % UTC; in series [1] (33 nM), 79 % UTC; in series [1] (82 nM) it was 79 % UTC; in series [1] (205 nM) it was 63 % UTC; in series [1] (512 nM), 58 % UTC. In addition, the “APOE RNA (% UTC)” value is reported as 43 % UTC in series [1] (1,280 nM), 25 % UTC in series [1] (3,200 nM), 9 % UTC in series [1] (8,000 nM) and 6 % UTC in series [1] (20,000 nM). The “APOE RNA (% control) Cortex” value in series [2] is recorded as 31 % control; in series [3] it was 36 % control. Besides, the “APOE RNA (% control) Spinal Cord” value worked out at 53 % control in series [2] and 31 % control in series [3].

In turn, “1736531 (e[5mC]*eT*eT*eG*eG*kTdG[ms]dA[ms]dA[ms]dT*d[5mC]*dT*dT*dT*dA[ms]dT*eT*eA*eA*eA; antisense) [Compound 1736531]” had a pIC50 in series [1] of 6.03. Moreover, the “APOE RNA (% UTC)” value in series [1] (5 nM) is listed as 97 % UTC; in series [1] (13 nM) it was 91 % UTC; in series [1] (33 nM) it was 89 % UTC; in series [1] (82 nM), 86 % UTC; in series [1] (205 nM), 77 % UTC; in series [1] (512 nM), 53 % UTC. Besides, the “APOE RNA (% UTC)” value in series [1] (1,280 nM) came to 49 % UTC; in series [1] (3,200 nM), 33 % UTC; in series [1] (8,000 nM), 12 % UTC; in series [1] (20,000 nM), 20 % UTC. The “APOE RNA (% control) Cortex” value in series [2] was 42 % control; in series [3], 54 % control. Moreover, the figures for the “APOE RNA (% control) Spinal Cord” value in series [2] and in series [3] were 52 % control and 74 % control, respectively.

Substance “1736514 (e[5mC]*eTeT*eG*kG*kT*dG[ms]dA[ms]dA[ms]dT*d[5mC]*dT*dT*dT*dA[ms]dT*eT*eA*eA*eA; antisense) [Compound 1736514]” showed a negative-log IC50 (pIC50) in series [1] of 6.17. In addition, the “APOE RNA (% UTC)” value in series [1] (5 nM) is given as 121 % UTC; in series [1] (13 nM), 123 % UTC; in series [1] (33 nM), 96 % UTC; in series [1] (82 nM), 77 % UTC; in series [1] (205 nM), 80 % UTC; in series [1] (512 nM), 46 % UTC. The “APOE RNA (% UTC)” value in series [1] (1,280 nM) came out at 33 % UTC; in series [1] (3,200 nM), 25 % UTC; in series [1] (8,000 nM) it was 23 % UTC; in series [1] (20,000 nM), 6 % UTC. Also, the “APOE RNA (% control) Cortex” value was 28 % control in series [2] and 39 % control in series [3]. The “APOE RNA (% control) Spinal Cord” value in series [2] worked out at 54 % control; in series [3] it was 16 % control.

(Values after patent publication US20250353873A1, “COMPOUNDS AND METHODS FOR MODULATING APOE EXPRESSION” (Ionis Pharmaceuticals, Inc., priority 2024, published 2025).)
